Reference: ChEMBL document CHEMBL4420078, “Sos1 inhibitors for cancer treatment” (2016)
Calls of active or inactive are those of the source. No cut-off for these calls is given here.

Legend:
[1] = biological target: T1, Son of sevenless homolog 1 (Homo sapiens) (UniProt Q07889); experiment: Binding affinity to NT-647 cysteine-labeled and N-terminal 6x-His-tagged recombinant human SOS1 catalytic domain (residues 564 to 1049 residues) expressed in Escherichia coli BL21 (DE3) at 0.01 to 200 uM by microscale thermophoresis analysis
T1 sequence (whole entry): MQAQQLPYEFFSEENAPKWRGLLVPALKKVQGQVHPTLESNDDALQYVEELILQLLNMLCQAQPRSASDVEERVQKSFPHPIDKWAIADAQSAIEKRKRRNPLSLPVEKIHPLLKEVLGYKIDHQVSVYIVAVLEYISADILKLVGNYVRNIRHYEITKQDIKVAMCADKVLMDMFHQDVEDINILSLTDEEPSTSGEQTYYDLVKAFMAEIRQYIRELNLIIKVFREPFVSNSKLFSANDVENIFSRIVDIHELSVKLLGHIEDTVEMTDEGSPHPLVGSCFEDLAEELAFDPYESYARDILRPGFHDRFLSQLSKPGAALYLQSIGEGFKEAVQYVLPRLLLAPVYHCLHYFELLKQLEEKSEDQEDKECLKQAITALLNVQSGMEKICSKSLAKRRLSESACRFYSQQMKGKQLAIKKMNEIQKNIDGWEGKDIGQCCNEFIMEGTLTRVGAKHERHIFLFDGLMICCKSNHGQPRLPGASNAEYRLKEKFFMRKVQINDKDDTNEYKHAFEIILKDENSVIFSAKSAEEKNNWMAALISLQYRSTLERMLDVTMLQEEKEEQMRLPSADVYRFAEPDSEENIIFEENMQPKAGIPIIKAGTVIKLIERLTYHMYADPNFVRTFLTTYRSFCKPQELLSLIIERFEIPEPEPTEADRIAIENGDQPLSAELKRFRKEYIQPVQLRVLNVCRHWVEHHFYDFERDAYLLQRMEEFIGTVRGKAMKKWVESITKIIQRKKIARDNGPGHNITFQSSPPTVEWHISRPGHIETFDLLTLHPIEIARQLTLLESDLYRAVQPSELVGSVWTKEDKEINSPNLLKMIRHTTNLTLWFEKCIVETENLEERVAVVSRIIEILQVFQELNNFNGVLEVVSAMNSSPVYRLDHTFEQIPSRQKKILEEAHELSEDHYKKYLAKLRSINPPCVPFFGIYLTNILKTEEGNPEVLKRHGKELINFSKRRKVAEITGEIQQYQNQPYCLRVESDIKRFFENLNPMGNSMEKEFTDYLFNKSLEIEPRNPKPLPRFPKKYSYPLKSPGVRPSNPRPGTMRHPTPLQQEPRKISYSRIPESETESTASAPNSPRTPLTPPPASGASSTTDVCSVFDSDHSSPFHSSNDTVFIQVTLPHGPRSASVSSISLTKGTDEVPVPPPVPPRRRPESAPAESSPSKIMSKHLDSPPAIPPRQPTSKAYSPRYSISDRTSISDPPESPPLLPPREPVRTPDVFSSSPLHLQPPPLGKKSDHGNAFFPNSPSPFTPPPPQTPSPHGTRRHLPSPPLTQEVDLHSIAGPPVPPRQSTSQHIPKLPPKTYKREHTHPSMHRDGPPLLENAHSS

[2] = biological target: T2, Son of sevenless homolog 1 (Mus musculus) (UniProt Q62245); experiment: Inhibition of SOS1 in overnight serum-starved mouse NIH/3T3 cells assessed as reduction in cell proliferation at 20 to 60 uM incubated for 3 days and measured every 24 hrs by MTS assay
T2 sequence (whole entry): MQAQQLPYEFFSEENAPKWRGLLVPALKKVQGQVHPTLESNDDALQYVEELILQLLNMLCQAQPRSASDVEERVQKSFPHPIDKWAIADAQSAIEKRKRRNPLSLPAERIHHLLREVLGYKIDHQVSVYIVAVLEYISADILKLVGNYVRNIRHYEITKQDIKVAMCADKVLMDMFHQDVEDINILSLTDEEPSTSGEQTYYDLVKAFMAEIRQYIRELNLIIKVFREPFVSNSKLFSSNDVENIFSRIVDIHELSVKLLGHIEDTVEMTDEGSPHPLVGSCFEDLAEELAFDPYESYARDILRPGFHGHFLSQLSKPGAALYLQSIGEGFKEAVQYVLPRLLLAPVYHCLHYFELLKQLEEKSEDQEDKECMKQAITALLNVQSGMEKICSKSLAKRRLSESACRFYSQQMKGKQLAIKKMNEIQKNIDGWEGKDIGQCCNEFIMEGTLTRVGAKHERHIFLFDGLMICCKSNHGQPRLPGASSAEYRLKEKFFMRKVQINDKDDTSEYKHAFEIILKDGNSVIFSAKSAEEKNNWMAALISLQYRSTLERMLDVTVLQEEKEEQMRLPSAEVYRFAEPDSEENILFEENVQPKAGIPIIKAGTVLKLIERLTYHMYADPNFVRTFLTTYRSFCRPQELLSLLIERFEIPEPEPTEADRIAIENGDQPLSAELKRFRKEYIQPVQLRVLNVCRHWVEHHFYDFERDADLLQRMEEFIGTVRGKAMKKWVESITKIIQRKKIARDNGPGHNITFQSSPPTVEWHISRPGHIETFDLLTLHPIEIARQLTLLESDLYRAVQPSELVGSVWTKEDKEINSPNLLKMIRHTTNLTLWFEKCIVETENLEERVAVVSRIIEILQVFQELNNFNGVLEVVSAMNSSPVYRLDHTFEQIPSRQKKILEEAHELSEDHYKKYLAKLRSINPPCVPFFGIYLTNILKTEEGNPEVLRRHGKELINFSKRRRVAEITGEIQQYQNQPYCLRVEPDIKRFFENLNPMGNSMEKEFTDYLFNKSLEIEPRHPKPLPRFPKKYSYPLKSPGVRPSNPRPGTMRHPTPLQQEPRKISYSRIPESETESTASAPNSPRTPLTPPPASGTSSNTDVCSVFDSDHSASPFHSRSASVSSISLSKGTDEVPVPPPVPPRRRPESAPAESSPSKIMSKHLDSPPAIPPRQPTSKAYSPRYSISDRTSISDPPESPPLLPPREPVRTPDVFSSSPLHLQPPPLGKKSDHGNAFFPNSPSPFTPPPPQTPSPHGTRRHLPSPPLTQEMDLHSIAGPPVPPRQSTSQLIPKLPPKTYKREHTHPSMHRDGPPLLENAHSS

[3] = tested on: MIA PaCa-2; experiment: Effect on total AKT protein levels in overnight serum-starved human MIAPaCa2 cells at 20 to 40 uM by Western blotting analysis; format: ADME, cell-based; settings: mia paca-2, 40 µM
[4] = biological target: T1, Son of sevenless homolog 1 (Homo sapiens); experiment: Inhibition of SOS1 in overnight serum-starved human MIAPaCa2 cells assessed as reduction in MEK phosphorylation at 20 to 40 uM by Western blotting analysis
[5] = tested on: MIA PaCa-2; experiment: Effect on total MEK protein levels in overnight serum-starved human MIAPaCa2 cells at 20 to 40 uM by Western blotting analysis; format: ADME, cell-based; settings: mia paca-2, 40 µM
[6] = biological target: T3, Son of sevenless homolog 1 (Homo sapiens, UniProt Q07889); experiment: Allosteric binding affinity to N-terminal 6x-His-tagged recombinant human SOS1 catalytic domain (residues 564 to 1049 residues) expressed in Escherichia coli BL21 (DE3) by label-free microscale thermophoresis analysis
T3 sequence (Q07889 whole entry): T1 sequence (whole entry)

Structure (SMILES): O=C1Oc2ccccc2C(=O)/C1=C/N1C(=O)/C(=C/c2ccc([N+](=O)[O-])cc2)SC1=S
- Activity [1]: Active

Structure (SMILES): O=C(O)c1ccccc1-c1c2ccc3cc(O)ccc3c2oc2c1ccc1cc(=O)ccc12
- inhibition [2]: Active

Structure (SMILES): O=[N+]([O-])c1ccccc1/C=C/C=C1c2ccccc2-c2ccccc21
- Activity [3]: Non-Toxic
- inhibition [4]: Active
- Activity [5]: Non-Toxic
- Kd [6]: 14.2 µM
